Measurements published in US9284318B2, “Protein kinase inhibitors” (Pharmascience, Inc., priority 2011, dated 2016).
pEC50, pIC50: −log10 of the molar value.

Experiments:
MV4-11 cells = assay: Human MV4-11 biphenotypic B myelomonocytic leukemia cell survival assay; type: cell-based; conditions: cell survival at 72h, Cell Titer-Glo
Procedure: Human MV4-11 Biphenotypic B Myelomonocytic Leukemia Cell Survival Assay
Biphenotypic B myelomonocytic leukemia MV4-11 cells (ATCC CRL-9591) were cultured in suspension at 37° C., 5% CO2 in complete medium (RPMI supplemented with 10% FBS, 1% penicillin/streptomycin). One day prior to treatment, cells per seeded in 96-well plates at 8000 cells/well in complete medium. The following day, triplicate wells were treated with compound curves of 100, 1000 or 10,000 nM starting concentration according to compound potency. Cell survival was measured 72h later by Cell Titer-Glo Luminescent Assay (Promega). Luminescence was read using a Tecan Infinite F200 microplate reader. EC50 values (50% survival in the presence of compound as compared to vehicle treated controls) were calculated from non-linear fit dose response compound curves using CambridgeSoft BioAssay software (Perkin Elmer).

[1] = target: T1, recombinant human colony stimulating factor 1 receptor (FMS) (Homo sapiens, UniProt P07333); assay: Biochemical cFMS (CSF1R) fluorescence polarization kinase assay; conditions: 10 μM ATP, 100 μM substrate, 60 minutes
T1 construct: containing the catalytic domain (amino acids 538-910); His tag; purchased Invitrogen; host or cells: insect cells
T1 sequence (P07333 538-910): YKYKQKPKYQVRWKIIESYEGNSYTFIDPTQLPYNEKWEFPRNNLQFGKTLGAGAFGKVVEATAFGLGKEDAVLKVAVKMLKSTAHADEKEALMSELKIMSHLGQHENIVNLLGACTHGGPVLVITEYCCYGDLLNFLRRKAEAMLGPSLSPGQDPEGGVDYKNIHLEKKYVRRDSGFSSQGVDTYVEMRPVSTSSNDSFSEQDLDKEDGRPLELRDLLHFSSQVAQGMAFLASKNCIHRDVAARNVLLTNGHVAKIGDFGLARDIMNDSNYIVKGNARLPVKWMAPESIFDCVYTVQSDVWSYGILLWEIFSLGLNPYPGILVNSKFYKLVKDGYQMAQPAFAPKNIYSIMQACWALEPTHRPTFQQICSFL
Procedure: Biochemical cFMS (CSF1R) Assay:
Fluorescence polarization-based kinase biochemical assays were performed in 384 well-plate format using histidine tagged recombinant human colony stimulating factor 1 receptor (FMS) supplied from Invitrogen™ (containing the catalytic domain (amino acids 538-910), expressed in insect cells and activated in vitro via auto phosphorylation) and a modified protocol of the KinEASE™ FP Fluorescein Green Assay supplied from Millipore™.
Kinase reactions were performed in 384 well plate format at room temperature for 60 minutes in presence of 100 μM substrate, 10 μM ATP and variable test article concentrations. The reaction was stopped with EDTA/KinEASE™ detection reagents and the polarization measured on a Tecan 500 instrument. From the dose-response curve obtained, the IC50 was estimated using Graph pad Prisms® using a non linear fit curve.

[2] = tested on: M-NFS-60 M-CSF-dependent myeloid leukemia cells; assay: Murine M-CSF-dependent M-NFS-60 cell survival assay; type: cell-based; conditions: Mus musculus; cell survival at 72 hours, 20 ng/ml M-CSF, Cell Titer-Glo
Procedure: Cellular Assays: Murine M-CSF-Dependent M-NFS-60 Cell Survival Assay
Murine M-NFS-60 M-CSF-dependent myeloid leukemia cells were purchased from ATCC (CRL-1838). Cells were routinely cultured at 37° C., 5% CO2 in complete medium (RPMI supplemented with 10% FBS, 1% penicillin/streptomycin, 50 uM beta mercaptoethanol) containing 30 ng/ml recombinant murine M-CSF (Peprotech 315-02). For survival assays, cells were transferred to depleted medium (complete medium depleted of M-CSF) for 24 hours prior to initiation of each experiment. M-CSF-starved cells were harvested and re-suspended in complete medium containing 20 ng/ml M-CSF. Cells were seeded at 25,000 cells/well in 96-well plates and incubated for 1 hour at 37° C., 5% CO2. Cells were treated with 1 uM or 10 uM compound curves in triplicate and cell survival was measured 72 hours later by Cell Titer-Glo Luminescent Assay (Promega). Luminescence was read using a Tecan Infinite F200 microplate reader. EC50 values (50% survival in the presence of compound as compared to vehicle treated controls) were calculated from non-linear fit dose response compound curves using GraphPad Prism Software.

| SMILES | pEC50 (MV4-11 cells) | pIC50 [1] | pEC50 [2] |
| --- | --- | --- | --- |
| Nc1ccc(-n2c3c(c4ncnc(N)c42)CCC3)cc1 [Compound 2] | > 7.00 | – | – |
| Nc1ncnc2c3c(n(-c4ccc(NS(=O)(=O)c5ccccc5)cc4)c12)CCC3 [Compound 3] | < 6.00 | < 6.00 | < 6.00 |
| Nc1ncnc2c3c(n(-c4ccc(NC(=O)Nc5ccccc5)cc4)c12)CCC3 [Compound 4] | > 7.00 | > 7.00 | > 7.00 |
| Nc1ncnc2c3c(n(-c4ccc5c(c4)OCO5)c12)CCC3 [Compound 5] | < 6.00 | – | – |
| CS(=O)(=O)Nc1ccc(-n2c3c(c4ncnc(N)c42)CCC3)cc1 [Compound 6] | < 6.00 | – | – |
| COc1ccc(-n2c3c(c4ncnc(N)c42)CCC3)cc1 [Compound 7] | < 6.00 | – | – |
| CCNC(=O)Nc1ccc(-n2c3c(c4ncnc(N)c42)CCC3)cc1 [Compound 9] | 6.00 to 7.00 | < 6.00 | < 6.00 |
| Nc1ncnc2c3c(n(-c4ccc(NC(=O)c5ccccc5)cc4)c12)CCC3 [Compound 10] | < 6.00 | < 6.00 | < 6.00 |
| COc1cccc(NC(=O)Nc2ccc(-n3c4c(c5ncnc(N)c53)CCC4)cc2)c1 [Compound 11] | > 7.00 | > 7.00 | > 7.00 |
| Nc1ncnc2c3c(n(-c4ccc(Nc5ccccc5)cc4)c12)CCC3 [Compound 12] | < 6.00 | < 6.00 | < 6.00 |
| COc1ccc(NC(=O)Nc2ccc(-n3c4c(c5ncnc(N)c53)CCC4)cc2)cc1 [Compound 13] | > 7.00 | – | > 7.00 |
| Nc1ncnc2c3c(n(Cc4ccccc4)c12)CCC3 [Compound 15] | < 6.00 | – | – |
| COc1ccccc1NC(=O)Nc1ccc(-n2c3c(c4ncnc(N)c42)CCC3)cc1 [Compound 16] | > 7.00 | 6.00 to 7.00 | > 7.00 |
| Nc1ncnc2c3c(n(-c4ccc(NC(=O)Nc5cccc(C(F)(F)F)c5)cc4)c12)CCC3 [Compound 17] | > 7.00 | 6.00 to 7.00 | > 7.00 |
| Nc1ccc(-n2c3c(c4ncnc(N)c42)CCCC3)cc1 [Compound 18] | 6.00 to 7.00 | – | – |
| Nc1ncnc2c3c(n(-c4ccc(NC(=O)Nc5cccc(F)c5)cc4)c12)CCC3 [Compound 19] | 6.00 to 7.00 | > 7.00 | > 7.00 |
| Nc1ncnc2c3c(n(-c4ccc(NC(=O)Nc5cccc(Cl)c5)cc4)c12)CCC3 [Compound 20] | 6.00 to 7.00 | 6.00 to 7.00 | > 7.00 |
| Nc1ncnc2c3c(n(-c4ccc(NC(=O)Nc5ccc(C(F)(F)F)cc5)cc4)c12)CCC3 [Compound 21] | 6.00 to 7.00 | 6.00 to 7.00 | > 7.00 |
| Nc1ncnc2c3c(n(-c4ccc(NC(=O)Nc5ccc(Cl)cc5)cc4)c12)CCC3 [Compound 22] | 6.00 to 7.00 | – | > 7.00 |
| Nc1ncnc2c3c(n(-c4ccc(NC(=O)Nc5ccccc5C(F)(F)F)cc4)c12)CCC3 [Compound 23] | < 6.00 | 6.00 to 7.00 | 6.00 to 7.00 |
| Nc1ncnc2c3c(n(-c4ccc(O)cc4)c12)CCC3 [Compound 26] | < 6.00 | – | – |
| Nc1ncnc2c3c(n(-c4ccc(NC(=O)Nc5ccc(OC(F)F)cc5)cc4)c12)CCC3 [Compound 27] | > 7.00 | > 7.00 | > 7.00 |
| Nc1ncnc2c3c(n(-c4ccc(NC(=O)Nc5ccc6c(c5)OCO6)cc4)c12)CCC3 [Compound 28] | > 7.00 | > 7.00 | > 7.00 |
| Nc1ncnc2c3c(n(CCc4ccccc4)c12)CCC3 [Compound 29] | < 6.00 | – | – |
| Nc1ncnc2c3c(n(-c4ccc(NC(=O)NCc5ccccc5)cc4)c12)CCC3 [Compound 30] | > 7.00 | 6.00 to 7.00 | 6.00 to 7.00 |
